# Measured values as given in US9200001B2, “Triazolyl PDE10 inhibitors” (Merck Sharp & Dohme Corp., priority 2011, dated 2015).
# Target: human PDE10A2 (Homo sapiens (Human), UniProt Q9Y233)
# Assay: PDE10 fluorescence polarization (IMAP FP) inhibition assay
# Type: biochemical
# Settings: FAM-labeled cAMP 50 nM, room temperature, read-out: PDE10a Ki
# Summary of the method: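 Cytoplasmic lysate of AD293 cells transiently expressing human PDE10A2, incubated 30 minutes at room temperature with 50 nM FAM-labeled cAMP in Tris pH 7.2 with MgCl2. Read by IMAP fluorescence polarization; 0% inhibition set by 1% DMSO, 100% by a reference PDE10 inhibitor.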
# Sequence of human PDE10A2 (Q9Y233 267-1055): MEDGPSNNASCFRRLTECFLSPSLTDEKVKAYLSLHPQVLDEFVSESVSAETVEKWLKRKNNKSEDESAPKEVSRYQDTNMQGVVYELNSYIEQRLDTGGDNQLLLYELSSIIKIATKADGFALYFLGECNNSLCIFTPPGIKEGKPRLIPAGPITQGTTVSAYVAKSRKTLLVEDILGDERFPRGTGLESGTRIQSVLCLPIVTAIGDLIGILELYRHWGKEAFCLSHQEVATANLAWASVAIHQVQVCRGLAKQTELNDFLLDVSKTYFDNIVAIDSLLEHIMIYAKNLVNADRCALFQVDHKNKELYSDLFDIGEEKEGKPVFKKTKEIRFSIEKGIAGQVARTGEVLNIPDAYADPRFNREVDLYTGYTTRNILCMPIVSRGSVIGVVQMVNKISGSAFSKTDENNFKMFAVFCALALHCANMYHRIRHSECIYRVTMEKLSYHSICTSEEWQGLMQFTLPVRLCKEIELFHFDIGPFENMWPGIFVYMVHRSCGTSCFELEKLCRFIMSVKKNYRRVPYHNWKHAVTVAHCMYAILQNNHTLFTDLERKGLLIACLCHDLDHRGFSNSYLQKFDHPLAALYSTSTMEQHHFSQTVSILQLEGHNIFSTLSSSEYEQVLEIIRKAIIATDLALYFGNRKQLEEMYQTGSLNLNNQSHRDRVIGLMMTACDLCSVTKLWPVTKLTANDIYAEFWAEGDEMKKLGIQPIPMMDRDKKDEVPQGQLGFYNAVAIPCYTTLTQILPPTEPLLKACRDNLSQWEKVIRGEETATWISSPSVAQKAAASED
row,Structure (SMILES),Ki [nM]
1,"Cc1nc(C2CC2c2nc3ccc(Cl)cc3[nH]2)cc(-n2nc(C)nc2C)n1 (centres unmarked) [Cpd 57, 6-chloro-2-(2-(6-(3,5-dimethyl-1H-1,2,4-triazol-1-yl)-2-methylpyrimidin-4-yl)cyclopropyl)-1H-benzo[d]imidazole]",30.7
2,"Cc1ccc2nc(C3CC3c3cc(-n4nc(C)nc4C)nc(C)n3)[nH]c2c1 (centres unmarked) [Cpd 58, 2-(2-(6-(3,5-dimethyl-1H-1,2,4-triazol-1-yl)-2-methylpyrimidin-4-yl)cyclopropyl)-6-methyl-1H-benzo[d]imidazole]",34.9
3,"COc1ccc2nc(C3CC3c3cc(-n4nc(C)nc4C)nc(C)n3)[nH]c2c1 (centres unmarked) [Cpd 59, 2-(2-(6-(3,5-dimethyl-1H-1,2,4-triazol-1-yl)-2-methylpyrimidin-4-yl)cyclopropyl)-6-methoxy-1H-benzo[d]imidazole]",30.5
4,"Cc1nc(C2CC2c2nc3ccc(OC(F)F)cc3[nH]2)cc(-n2nc(C)nc2C)n1 (centres unmarked) [Cpd 60, 6-(difluoromethoxy)-2-(2-(6-(3,5-dimethyl-1H-1,2,4-triazol-1-yl)-2-methylpyrimidin-4-yl)cyclopropyl)-1H-benzo[d]imidazole]",58.2
5,"Cc1nc([C@@H]2C[C@H]2c2nc3ccc(F)cc3[nH]2)cc(-n2nc(C)nc2C)n1 [Cpd 68, 2-{(1R,2R)-2-[6-(3,5-dimethyl-1H-1,2,4-triazol-1-yl)-2-methylpyrimidin-4-yl]cyclopropyl}-6-fluoro-1H-benzimidazole]",9.2
6,"Cc1nc([C@@H]2C[C@H]2c2nc3ccccc3n2C)cc(-n2cnc(C)n2)n1 [Cpd 77, 1-methyl-2-{(1R,2R)-2-[2-methyl-6-(3-methyl-1H-1,2,4-triazol-1-yl)pyrimidin-4-yl]cyclopropyl}-1H-benzimidazole]",9
7,"Cc1nc([C@H]2C[C@@H]2c2nc3ccccc3[nH]2)cc(-n2nc(C)nc2C)n1 [Cpd 90, 2-{(1S,2S)-2-[6-(3,5-dimethyl-1H-1,2,4-triazol-1-yl)-2-methylpyrimidin-4-yl]cyclopropyl}-1H-benzimidazole]",38
8,"Cc1nc(CCc2ccc3ncccc3n2)cc(-n2nc(C)nc2C)n1 [Cpd 99, 2-{2-[6-(3,5-dimethyl-1H-1,2,4-triazol-1-yl)-2-methylpyrimidin-4-yl]ethyl}-1,5-naphthyridine]",73
9,"Cc1nc([C@@H]2C[C@H]2c2nc3ccccc3n2C)cc(-n2nc(C)nc2C(C)(C)C)n1 [Cpd 100, 2-{(1R,2R)-2-[6-(5-tert-butyl-3-methyl-1H-1,2,4-triazol-1-yl)-2-methylpyrimidin-4-yl]cyclopropyl}-1-methyl-1H-benzimidazole]",13.8
10,"Cc1nc([C@@H]2C[C@H]2c2nc3ccccc3n2C)cc(-n2nc(C)nc2[C@@H]2CCCO2)n1 [Cpd 101, 1-methyl-2-[(1R,2R)-2-(2-methyl-6-{3-methyl-5-[(2S)-tetrahydrofuran-2-yl]-1H-1,2,4-triazol-1-yl}pyrimidin-4-yl)cyclopropyl]-1H-benzimidazole]",5.8
11,"Cc1nc([C@H]2C[C@@H]2c2nc3ccccc3n2CCF)cc(-n2nc(C)nc2C)n1 [Cpd 102, 2-{(1S,2S)-2-[6-(3,5-dimethyl-1H-1,2,4-triazol-1-yl)-2-methylpyrimidin-4-yl]cyclopropyl}-1-(2-fluoroethyl)-1H-benzimidazole]",> 75
12,"Cc1nc([C@H]2C[C@@H]2c2nc3ccccc3s2)cc(-n2nc(C)nc2C)n1 [Cpd 104, 2-{(1S,2S)-2-[6-(3,5-dimethyl-1H-1,2,4-triazol-1-yl)-2-methylpyrimidin-4-yl]cyclopropyl}-1,3-benzothiazole]",69.5
13,"Cc1nc([C@H]2C[C@@H]2c2nnc(-c3ccn(C)n3)s2)cc(-n2nc(C)nc2C)n1 [Cpd 105, 4-(3,5-dimethyl-1H-1,2,4-triazol-1-yl)-2-methyl-6-{(1S,2S)-2-[5-(1-methyl-1H-pyrazol-3-yl)-1,3,4-thiadiazol-2-yl]cyclopropyl}pyrimidine]",> 75

# Now those with a lower Ki, led by results:
row,Ki [nM],Structure (SMILES)
1,1.7,"Cc1nc(C2CC2c2nc3ccccc3n2C)cc(-n2nc(C)nc2C(C)C)n1 (centres unmarked) [Cpd 56, 2-(2-(6-(5-isopropyl-3-methyl-1H-1,2,4-triazol-1-yl)-2-methylpyrimidin-4-yl)cyclopropyl)-1-methyl-1H-benzo[d]imidazole]"
2,0.085,"Cc1nc(C)n(-c2cc([C@@H]3C[C@H]3c3nc4ccccc4n3C)nc(C#N)n2)n1 [Cpd 61, 4-(3,5-dimethyl-1H-1,2,4-triazol-1-yl)-6-[(1R,2R)-2-(1-methyl-1H-benzimidazol-2-yl)cyclopropyl]primidine-2-carbonitrile]"
3,0.77,"CNc1nc([C@@H]2C[C@H]2c2nc3ccccc3n2C)cc(-n2nc(C)nc2C)n1 [Cpd 62, 4-(3,5-dimethyl-1H-1,2,4-triazol-1-yl)-N-methyl-6-[(1R,2R)-2-(1-methyl-1H-benzimidazol-2-yl)cyclopropyl]pyrimidin-2-amine]"
4,0.54,"CCOc1nc([C@@H]2C[C@H]2c2nc3ccccc3n2C)cc(-n2nc(C)nc2C)n1 [Cpd 63, 2-{(1R,2R)-2-[6-(3,5-dimethyl-1H-1,2,4-triazol-1-yl)-2-ethoxypyrimidin-4-yl]cyclopropyl}-1-methyl-1H-benzimidazole]"
5,1.09,"Cc1nc(C)n(-c2cc([C@@H]3C[C@H]3c3nc4ccccc4n3C)nc(OCCO)n2)n1 [Cpd 64, 2-({4-(3,5-dimethyl-1H-1,2,4-triazol-1-yl)-6-[(1R,2R)-2-(1-methyl-1H-benzimidazol-2-yl)cyclopropyl]pyrimidin-2-yl}oxy)ethanol]"
6,1.08,"COCCOc1nc([C@@H]2C[C@H]2c2nc3ccccc3n2C)cc(-n2nc(C)nc2C)n1 [Cpd 65, 2-{(1R,2R)-2-[6-(3,5-dimethyl-1H-1,2,4-triazol-1-yl)-2-(2-methoxyethoxy)pyrimidin-4-yl]cyclopropyl}-1-methyl-1H-benzimidazole]"
7,0.63,"COC[C@@H](C)Oc1nc([C@@H]2C[C@H]2c2nc3ccccc3n2C)cc(-n2nc(C)nc2C)n1 [Cpd 66, 2-[(1R,2R)-2-{6-(3,5-dimethyl-1H-1,2,4-triazol-1-yl)-2-[(1R)-2-methoxy-1-methylethoxy]pyrimidin-4-yl}cyclopropyl]-1-methyl-1H-benzimidazole]"
8,0.9,"COC[C@H](C)Oc1nc([C@@H]2C[C@H]2c2nc3ccccc3n2C)cc(-n2nc(C)nc2C)n1 [Cpd 67, 2-[(1R,2R)-2-{6-(3,5-dimethyl-1H-1,2,4-triazol-1-yl)-2-[(1S)-2-methoxy-1-methylethoxy]pyrimidin-4-yl]cyclopropyl}-1-methyl-1H-benzimidazole]"
9,0.37,"CSc1nc([C@@H]2C[C@H]2c2nc3ccccc3n2C)cc(-n2nc(C)nc2C)n1 [Cpd 69, 2-{(1R,2R)-2-[6-(3,5-dimethyl-1H-1,2,4-triazol-1-yl)-2-(methylsulfanyl)pyrimidin-4-yl]cyclopropyl}-1-methyl-1H-benzimidazole]"
10,2,"Cc1nc([C@@H]2C[C@H]2c2nc3ccccc3n2C)cc(-n2nc(Br)nc2C)n1 [Cpd 88, 2-{(1R,2R)-2-[6-(3-bromo-5-methyl-1H-1,2,4-triazol-1-yl)-2-methylpyrimidin-4-yl]cyclopropyl}-1-methyl-1H-benzimidazole]"
11,2.6,"Cc1nc([C@@H]2C[C@H]2c2nc3ccccc3[nH]2)cc(-n2nc(C)nc2C)n1 [Cpd 89, 2-{(1R,2R)-2-[6-(3,5-dimethyl-1H-1,2,4-triazol-1-yl)-2-methylpyrimidin-4-yl]cyclopropyl}-1H-benzimidazole]"
12,0.4,"CCc1nc(C)nn1-c1cc([C@@H]2C[C@H]2c2nc3ccccc3n2C)nc(C)n1 [Cpd 92, 2-{(1R,2R)-2-[6-(5-ethyl-3-methyl-1H-1,2,4-triazol-1-yl)-2-methylpyrimidin-4-yl]cyclopropyl}-1-methyl-1H-benzimidazole]"
13,3.1,"Cc1nc([C@@H]2C[C@H]2c2nc3ccccc3n2C)cc(-n2nc(C)nc2CF)n1 [Cpd 93, 2-[(1R,2R)-2-{6-[5-(fluoromethyl)-3-methyl-1H-1,2,4-triazol-1-yl]-2-methylpyrimidin-4-yl}cyclopropyl]-1-methyl-1H-benzimidazole]"
14,5.3,"COCc1ncnn1-c1cc([C@@H]2C[C@H]2c2nc3ccccc3n2C)nc(C)n1 [Cpd 94, 2-[(1R,2R)-2-{6-[5-(methoxymethyl)-1H-1,2,4-triazol-1-yl]-2-methylpyrimidin-4-yl}cyclopropyl]-1-methyl-1H-benzimidazole]"
15,2.1,"CO[C@@H](C)c1nc(C)nn1-c1cc([C@@H]2C[C@H]2c2nc3ccccc3n2C)nc(C)n1 [Cpd 95, 2-[(1R,2R)-2-(6-{5-[(1S)-1-methoxyethyl]-3-methyl-1H-1,2,4-triazol-1-yl}-2-methylpyrimidin-4-yl)cyclopropyl]-1-methyl-1H-benzimidazole]"
16,3.9,"Cc1nc([C@@H]2C[C@H]2c2nc3ccccc3n2C)cc(-n2nc(C)nc2C2CCN(C)CC2)n1 [Cpd 96, 1-methyl-2-[(1R,2R)-2-{2-methyl-6-[3-methyl-5-(1-methylpiperidin-4-yl)-1H-1,2,4-triazol-1-yl]pyrimidin-4-yl}cyclopropyl]-1H-benzimidazole]"
17,1.1,"Cc1nc([C@@H]2C[C@H]2c2nc3ccccc3n2C)cc(-n2nc(C)nc2C2CCOCC2)n1 [Cpd 97, 1-methyl-2-[(1R,2R)-2-{2-methyl-6-[3-methyl-5-(tetrahydro-2H-pyran-4-yl)-1H-1,2,4-triazol-1-yl]pyrimidin-4-yl}cyclopropyl]-1H-benzimidazole]"
18,4.2,"Cc1nc([C@@H]2C[C@H]2c2nc3ccccc3n2C)cc(-n2nc(C)nc2C(C)(C)O)n1 [Cpd 98, 2-(3-methyl-1-{2-methyl-6-[(1R,2R)-2-(1-methyl-1H-benzimidazol-2-yl)cyclopropyl]pyrimidin-4-yl}-1H-1,2,4-triazol-5-yl)propan-2-ol]"
19,2.9,"Cc1nc([C@H]2C[C@@H]2c2nc3ccccc3n2CCF)cc(-n2nc(C)nc2C)n1 [Cpd 103, 2-{(1S,2S)-2-[6-(3,5-dimethyl-1H-1,2,4-triazol-1-yl)-2-methylpyrimidin-4-yl]cyclopropyl}-1-(2-fluoroethyl)-1H-benzimidazole]"
